Results: patent US12564638B2 (SHANGHAITECH UNIVERSITY, priority 2019, dated 2026)
Like-named read-outs stand apart in the source and are kept apart here.

Legend:
[1] = test system: HCC827 cells (EGFR Exon19 del, non-small cell lung cancer cells); assay: Cell viability assay (WST/CCK8), HCC827 cells; type: cell-based; conditions: Homo sapiens, HCC827, 72 h, HCC827 (Exon19 Del), 72 hours, read-out: IC50 (half inhibitory concentration)
Procedure, shortened: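 Cells seeded at 3 000/well in RPMI1640 complete medium, dosed next day with compounds (top 10 μM, 3-fold, 10 points) for 72 h. Viability read with WST (CCK8) reagent; DMSO as negative control, EGFR TKIs as positive controls; IC50 determined.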

[2] = test system: PC9 cells (EGFR Exon 19 del, non-small cell lung cancer cells); assay: Cell viability assay (WST/CCK8), PC9 cells; type: cell-based; conditions: Homo sapiens, PC-9, PC9 (Exon19 Del), 72 hours, read-out: IC50 (half inhibitory concentration)
Excerpt: The cell lines with abnormal EGFR expression used are as follows: • HCC827 cells (EGFR Exon19 del, non-small cell lung cancer cells); • PC9 cells (EGFR Exon 19 del, non-small cell lung cancer cells); • PC9BracA1 (EGFR Exon 19 del+T790M, non-small cell lung cancer cells) • H1975 (EGFR Exon T790M+L858R mutation, non-small cell lung cancer cell line) • BT474 cells (HER2 positive breast cancer cells)
All of the half inhibitory concentrations (IC50) of these compounds of the present invention were determined with WST reagent from Fuyuan Biotec Company. The specific experiment procedures are as follows: Cancer cells were planted in 96-well-plate at the density of 3 000 cells per well with 100 μL RPMI1640 completed culture medium. In the next day, compounds with indicated concentrations were added to the cells, DMSO was used as the negative control and the EGFR TKIs were used to treat cells as the positive groups. After 72 hours drug treatment, cell viability was measured by using the WST reagent following the instructions.
The cells were treated with the gradient concentration of these compounds (the maximum concentration: 10 μM; 3-fold dilution ratio, 10 concentration gradients) for 72 hours and then incubated with the WST (CCK8) reagent to determine the cell viability.

[3] = Table 6, canertinib-based compounds, WST

With `COc1cc2ncnc(Nc3ccc(F)c(Cl)c3)c2cc1NC(=O)/C=C/CN1CCN(C(=O)CCCCCSc2cccc3c2CN(C2CCC(=O)NC2=O)C3=O)CC1` (stereo not shown) [SIAIS219189, (E)-N-(4-((3-chloro-4-fluorophenyl)amino)-7-methoxyquinazolin-6-yl)-4-(4-(6-((2-(2,6-dioxopiperidin-3-yl)-1-oxoisoindolin-4-yl)thio)hexanoyl)piperazin-1-yl)but-2-enamide] the IC50 ([1]; WST (CCK8)) was 3.8 nM and the IC50 ([2]; WST (CCK8)) was 9.2 nM.
Molecule `COc1cc2ncnc(Nc3ccc(F)c(Cl)c3)c2cc1NC(=O)/C=C/CN1CCC(NC(=O)CCOCCOCCNc2cccc3c2C(=O)N(C2CCC(=O)NC2=O)C3=O)CC1` (stereo not shown) [SIAIS249086, (E)-N-(4-((3-chloro-4-fluorophenyl)amino)-7-methoxyquinazolin-6-yl)-4-(4-(3-(2-(2-((2-(2,6-dioxopiperidin-3-yl)-1,3-dioxoisoindolin-4-yl)amino)ethoxy)ethoxy)propanamido)piperidin-1-yl)but-2-enamide] has an IC50 ([1]; WST (CCK8)) of 17 nM and an IC50 ([2]; WST (CCK8)) of 34.2 nM.
`COc1cc2ncnc(Nc3ccc(F)c(Cl)c3)c2cc1NC(=O)/C=C/CN1CCN(C(=O)COCCOCCSc2cccc3c2CN(C2CCC(=O)NC2=O)C3=O)CC1` (stereo not shown) [SIAIS262001, (E)-N-(4-((3-chloro-4-fluorophenyl)amino)-7-methoxyquinazolin-6-yl)-4-(4-(2-(2-(2-((2-(2,6-dioxopiperidin-3-yl)-1-oxoisoindolin-4-yl)thio)ethoxy)ethoxy)acetyl)piperazin-1-yl)but-2-enamide] showed an IC50 ([1]; WST (CCK8)) of 26.9 nM and an IC50 ([2]; WST (CCK8)) of 53 nM.
`COc1cc2ncnc(Nc3ccc(F)c(Cl)c3)c2cc1NC(=O)/C=C/CN1CCN(C(=O)CCCCCCC(=O)N[C@H](C(=O)N2C[C@H](O)C[C@H]2C(=O)NCc2ccc(-c3scnc3C)cc2)C(C)(C)C)CC1` [SIAIS249043, (2S,4R)-1-((S)-2-(8-(4-((E)-4-((4-((3-chloro-4-fluorophenyl)amino)-7-methoxyquinazolin-6-yl)amino)-4-oxobut-2-en-1-yl)piperazin-1-yl)-8-oxooctanamido)-3,3-dimethylbutanoyl)-4-hydroxy-N-(4-(4-methylthiazol-5-yl)benzyl)pyrrolidine-2-carboxamide] gave an IC50 ([1]; WST (CCK8)) of 19.3 nM and an IC50 ([2]; WST (CCK8)) of 70.6 nM.
`COc1cc2ncnc(Nc3ccc(F)c(Cl)c3)c2cc1NC(=O)/C=C/CN1CCN(C(=O)CCCSc2cccc3c2CN(C2CCC(=O)NC2=O)C3=O)CC1` (stereo not shown) [SIAIS219187, (E)-N-(4-((3-chloro-4-fluorophenyl)amino)-7-methoxyquinazolin-6-yl)-4-(4-(4-((2-(2,6-dioxopiperidin-3-yl)-1-oxoisoindolin-4-yl)thio)butanoyl)piperazin-1-yl)but-2-enamide] showed an IC50 ([1]; WST (CCK8)) of 6.7 nM and an IC50 ([2]; WST (CCK8)) of 33.3 nM.
In the case of `COc1cc2ncnc(Nc3ccc(F)c(Cl)c3)c2cc1NC(=O)/C=C/CN1CCC(N2CCN(C(=O)CCCCCCNc3cccc4c3CN(C3CCC(=O)NC3=O)C4=O)CC2)CC1` (stereo not shown) [SIAIS337036, (E)-N-(4-((3-chloro-4-fluorophenyl)amino)-7-methoxyquinazolin-6-yl)-4-(4-(4-(7-((2-(2,6-dioxopiperidin-3-yl)-1-oxoisoindolin-4-yl)amino)heptanoyl)piperazin-1-yl)piperidin-1-yl)but-2-enamide], the IC50 ([1]; WST (CCK8)) is reported as 0.7 nM and the IC50 ([2]; WST (CCK8)) is reported as 1.3 nM.
In the case of `COc1cc2ncnc(Nc3ccc(F)c(Cl)c3)c2cc1NC(=O)/C=C/CN1CCN(C(=O)CCCNc2cccc3c2CN(C2CCC(=O)NC2=O)C3=O)CC1` (stereo not shown) [SIAIS249057, (E)-N-(4-((3-chloro-4-fluorophenyl)amino)-7-methoxyquinazolin-6-yl)-4-(4-(4-((2-(2,6-dioxopiperidin-3-yl)-1-oxoisoindolin-4-yl)amino)butanoyl)piperazin-1-yl)but-2-enamide], the IC50 ([1]; WST (CCK8)) is reported as 11.5 nM and the IC50 ([2]; WST (CCK8)) is reported as 7.8 nM.
With `COc1cc2ncnc(Nc3ccc(F)c(Cl)c3)c2cc1OCCCN1CCN(C(=O)CCCCCSc2cccc3c2C(=O)N(C2CCC(=O)NC2=O)C3=O)CC1` (stereo not shown) [SIAIS184166, 4-((6-(4-(3-((4-((3-chloro-4-fluorophenyl)amino)-7-methoxyquinazolin-6-yl)oxy)propyl)piperazin-1-yl)-6-oxohexyl)thio)-2-(2,6-dioxopiperidin-3-yl)isoindoline-1,3-dione] the IC50 ([1]; Table 4, gefitinib and sapitinib-based compounds, WST) was 80 nM and the IC50 ([2]; Table 4, gefitinib-based compounds, WST) was 692 nM.
With `C=CC(=O)Nc1cc2c(Nc3ccc(F)c(Cl)c3)ncnc2cc1OCCCN1CCC(N2CCNCC2)CC1` [Caneritinib derivative B (SIAIS249183), N-(4-((3-chloro-4-fluorophenyl)amino)-7-(3-(4-(piperazin-1-yl)piperidin-1-yl)propoxy)quinazolin-6-yl)acrylamide] the IC50 [1, 3] was 15.9 nM and the IC50 [2, 3] was 13.9 nM.
`COc1cc2ncnc(Nc3ccc(F)c(Cl)c3)c2cc1NC(=O)/C=C/CN1CCN(C(=O)COCCSc2cccc3c2C(=O)N(C2CCC(=O)NC2=O)C3=O)CC1` (stereo not shown) [SIAIS219192, (E)-N-(4-((3-chloro-4-fluorophenyl)amino)-7-methoxyquinazolin-6-yl)-4-(4-(2-(2-((2-(2,6-dioxopiperidin-3-yl)-1,3-dioxoisoindolin-4-yl)thio)ethoxy)acetyl)piperazin-1-yl)but-2-enamide] gave an IC50 ([1]; WST (CCK8)) of 16.4 nM and an IC50 ([2]; WST (CCK8)) of 8.9 nM.
In the case of `COc1cc2ncnc(Nc3ccc(F)c(Cl)c3)c2cc1NC(=O)/C=C/CN1CCN(C(=O)CCNc2cccc3c2C(=O)N(C2CCC(=O)NC2=O)C3=O)CC1` (stereo not shown) [SIAIS262016, (E)-N-(4-((3-chloro-4-fluorophenyl)amino)-7-methoxyquinazolin-6-yl)-4-(4-(3-((2-(2,6-dioxopiperidin-3-yl)-1,3-dioxoisoindolin-4-yl)amino)propanoyl)piperazin-1-yl)but-2-enamide], the IC50 ([1]; WST (CCK8)) is reported as 4.5 nM and the IC50 ([2]; WST (CCK8)) is reported as 112 nM.
Work on `COc1cc2ncnc(Nc3ccc(F)c(Cl)c3)c2cc1NC(=O)/C=C/CN1CCN(C(=O)COCCOCCOCCSc2cccc3c2C(=O)N(C2CCC(=O)NC2=O)C3=O)CC1` (stereo not shown) [SIAIS262006, (E)-N-(4-((3-chloro-4-fluorophenyl)amino)-7-methoxyquinazolin-6-yl)-4-(4-(2-(2-(2-(2-((2-(2,6-dioxopiperidin-3-yl)-1,3-dioxoisoindolin-4-yl)thio)ethoxy)ethoxy)ethoxy)acetyl)piperazin-1-yl)but-2-enamide] yielded an IC50 ([1]; WST (CCK8)) of 35.5 nM and an IC50 ([2]; WST (CCK8)) of 73 nM.
`COc1cc2ncnc(Nc3ccc(F)c(Cl)c3)c2cc1NC(=O)/C=C/CN1CCN(C(=O)CCCCCNc2cccc3c2CN(C2CCC(=O)NC2=O)C3=O)CC1` (stereo not shown) [SIAIS249059, (E)-N-(4-((3-chloro-4-fluorophenyl)amino)-7-methoxyquinazolin-6-yl)-4-(4-(6-((2-(2,6-dioxopiperidin-3-yl)-1-oxoisoindolin-4-yl)amino)hexanoyl)piperazin-1-yl)but-2-enamide] showed an IC50 ([1]; WST (CCK8)) of 11.1 nM and an IC50 ([2]; WST (CCK8)) of 1.2 nM.
In the case of `COc1cc2ncnc(Nc3ccc(F)c(Cl)c3)c2cc1NC(=O)/C=C/CN1CCC(N2CCN(C(=O)CCCCCCOc3cccc4c3CN(C3CCC(=O)NC3=O)C4=O)CC2)CC1` (stereo not shown) [SIAIS337028, (E)-N-(4-((3-chloro-4-fluorophenyl)amino)-7-methoxyquinazolin-6-yl)-4-(4-(4-(7-((2-(2,6-dioxopiperidin-3-yl)-1-oxoisoindolin-4-yl)oxy)heptanoyl)piperazin-1-yl)piperidin-1-yl)but-2-enamide], the IC50 ([1]; WST (CCK8)) is reported as 0.9 nM and the IC50 ([2]; WST (CCK8)) is reported as 20.3 nM.
`COc1cc2ncnc(Nc3ccc(F)c(Cl)c3)c2cc1NC(=O)/C=C/CN1CCN(C(=O)COCCOCCOCCOCCOCCSc2cccc3c2CN(C2CCC(=O)NC2=O)C3=O)CC1` (stereo not shown) [SIAIS262004, (E)-N-(4-((3-chloro-4-fluorophenyl)amino)-7-methoxyquinazolin-6-yl)-4-(4-(17-((2-(2,6-dioxopiperidin-3-yl)-1-oxoisoindolin-4-yl)thio)-3,6,9,12,15-pentaoxaheptadecan-1-oyl)piperazin-1-yl)but-2-enamide] was tested, and the IC50 ([1]; WST (CCK8)) was 7.2 nM and the IC50 ([2]; WST (CCK8)) was 15 nM.
`COc1cc2ncnc(Nc3ccc(F)c(Cl)c3)c2cc1NC(=O)/C=C/CN1CCN(C(=O)CCOCCOCCNc2cccc3c2C(=O)N(C2CCC(=O)NC2=O)C3=O)CC1` (stereo not shown) [SIAIS262013, (E)-N-(4-((3-chloro-4-fluorophenyl)amino)-7-methoxyquinazolin-6-yl)-4-(4-(3-(2-(2-((2-(2,6-dioxopiperidin-3-yl)-1,3-dioxoisoindolin-4-yl)amino)ethoxy)ethoxy)propanoyl)piperazin-1-yl)but-2-enamide] showed an IC50 ([1]; WST (CCK8)) of 35.8 nM and an IC50 ([2]; WST (CCK8)) of 28 nM.
`COc1cc2ncnc(Nc3ccc(F)c(Cl)c3)c2cc1NC(=O)/C=C/CN1CCN(C(=O)CCCSc2cccc3c2C(=O)N(C2CCC(=O)NC2=O)C3=O)CC1` (stereo not shown) [SIAIS249036, (E)-N-(4-((3-chloro-4-fluorophenyl)amino)-7-methoxyquinazolin-6-yl)-4-(4-(4-((2-(2,6-dioxopiperidin-3-yl)-1,3-dioxoisoindolin-4-yl)thio)butanoyl)piperazin-1-yl)but-2-enamide] gave an IC50 ([1]; WST (CCK8)) of 8.1 nM and an IC50 ([2]; WST (CCK8)) of 47.7 nM.
